# Test results: patent US20130267516A1, “SUBSTITUTED CYCLOPENTYL-AZINES AS CASR-ACTIVE COMPOUNDS” (LEO PHARMA A/S, priority 2010, published 2013)
# Experiment: Clearance in rat hepatocytes
# Type: in vitro ADME
# Conditions: hepatic extraction ratio; 0.5 μM compound, 1×10^6 cells/mL, 20 min
# Method: Test compounds and 4 control compounds are tested in duplicate per run. Test compound concentration is 0.5 μM and cell concentration is 1×10^6 cells/mL in the incubation. The described method is performed by the liquid handling system Tecan RSP and is based on a 96-well format.
# The liver is collected from a male Spraque-Dawley rat. One liver lobe is cut off and flushed with various buffers to loosen the cells. The cell suspension is washed and centrifuged, and the cell density is adjusted to 1.2×10^6 cells/mL with Krebs-Henseleit buffer, pH 7.4, containing 0.2% bovine serum albumin (BSA). Only cell suspensions with viability above 80% are used.
# The cell suspension is pre-heated (20 min) to 37° C. Test compound is added, and the mixture is incubated for 20 minutes. Incubations are run in duplicate. Samples are withdrawn at predetermined stop times and mixed with methanol containing internal standard (IS) to terminate all enzyme activity and precipitate proteins.
# The percentage of organic solvent in the incubations is less than 1%. Careful inspections of reagents are performed prior to the start of any experiment to ensure all reagents are in solution.
# The 96-well plates are centrifuged. Test compound depletion, using a compound specific LC/MS/MS method, is determined.
# Data analysis is performed as described above in the section “Biological assay for analysis of clearance in human liver microsomes”, with the following modifications:
# Intrinsic clearance (Clint) (mL/min/10^6 cells) is calculated from: […]
# where c is the cell concentration in 10^6 cells/mL.
# The following scaling factors for rat are used for eq. 4:
# a: 120 (cells/liver weight (10^6 cells/g)) b: 10 (liver weight (g)) d: 0.25 (body weight (kg))
# Liver blood flow in rats (for eq. 5):
# Apparent clearance below approximately 25 mL/min/kg rat body weight (corresponding to an extraction ratio of approx. 33%) is considered as low clearance (high metabolic stability). Apparent intrinsic clearance above approximately 165 mL/min/kg rat body weight (corresponding to an extraction ratio of approx. 75%) is considered as high clearance (low metabolic stability).
row,Clearance (% Eh) in rat hepatocytes,SMILES
1,B (B: 33% ≦ Eh ≦ 75%),"C[C@@H](N[C@H]1CC[C@@H](c2ccc(NCCNCCO)nc2)C1)c1cccc2ccccc12.O=CO.O=CO.O=CO [Compound 101, 2-[2-[[5-[(1R,3S)-3-[[(1R)-1-(1-Naphthyl)ethyl]amino]cyclopentyl]-2-pyridyl]amino]ethylamino]ethanol]"
2,A (A: Eh < 33%),"COc1cc([C@@H](C)N[C@H]2CC[C@@H](c3cnc(N4CCN(C(C)=O)CC4)nc3)C2)ccc1F.O=CO [Compound 127, 1-[4-[5-[(1R,3S)-3-[[(1R)-1-(4-Fluoro-3-methoxy-phenyl)ethyl]amino]cyclopentyl]pyrimidin-2-yl]piperazin-1-yl]ethanone]"
3,B (B: 33% ≦ Eh ≦ 75%),"COc1cc([C@@H](C)N[C@H]2CC[C@@H](c3cnc(N4CCNC(=O)C4)nc3)C2)ccc1F [Compound 126, 4-[5-[(1R,3S)-3-[[(1R)-1-(4-Fluoro-3-methoxy-phenyl)ethyl]amino]cyclopentyl]pyrimidin-2-yl]piperazin-2-one]"
4,A (A: Eh < 33%),"COc1cc([C@@H](C)N[C@H]2CC[C@@H](c3ccc(NC4CCNCC4)nc3)C2)ccc1F [Compound 107, 5-[(1R,3S)-3-[[(1R)-1-(4-Fluoro-3-methoxy-phenyl)ethyl]amino]cyclopentyl]-N-(4-piperidyl)pyridin-2-amine]"

# Second part, the compound before the results:
row,SMILES,Clearance (% Eh) in rat hepatocytes
1,"COc1cc([C@@H](C)N[C@H]2CC[C@@H](c3ccc(N4CCN(C(C)=O)CC4)nc3)C2)ccc1F [Compound 116, 1-[4-[5-[(1R,3S)-3-[[(1R)-1-(4-Fluoro-3-methoxyphenyl)ethyl]amino]cyclopentyl]-2-pyridyl]piperazin-1-yl]ethanone]",A (A: Eh < 33%)
2,"COc1cc([C@@H](C)N[C@H]2CC[C@@H](c3ccc(N4CCNC(=O)C4)nc3)C2)ccc1F [Compound 109, 4-[5-[(1R,3S)-3-[[(1R)-1-(4-Fluoro-3-methoxy-phenyl)ethyl]amino]cyclopentyl]-2-pyridyl]piperazin-2-one]",A (A: Eh < 33%)
3,"COc1cc([C@@H](C)N[C@H]2CC[C@@H](c3ccc(NCC(O)CO)nc3)C2)ccc1F (stereo partly drawn) [Compound 115, 3-[[5-[(1R,3S)-3-[[(1R)-1-(4-Fluoro-3-methoxyphenyl)ethyl]amino]cyclopentyl]-2-pyridyl]amino]propane-1,2-diol]",A (A: Eh < 33%)
4,"COc1cc([C@@H](C)N[C@H]2CC[C@@H](c3ccc(NCCS(N)(=O)=O)nc3)C2)ccc1F [Compound 113, 2-[[5-[(1R,3S)-3-[[(1R)-1-(4-Fluoro-3-methoxyphenyl)ethyl]amino]cyclopentyl]-2-pyridyl]amino]ethanesulfonamide]",A (A: Eh < 33%)
